Source: ChEMBL document CHEMBL1201862, “PubChem BioAssay data set” (2004)
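Interpolation was linear, between the two tested concentrations surrounding the appropriate level; five concentrations were tested over 48 hours in 96-well plates. The concentration for 50% growth inhibition is given as GI50.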 Active and inactive are the calls of the source. Rule as the data show it: active = GI50 up to about 1.1 µM and inactive = higher.

Assays:
Test in all cases: inhibition of tumour cell growth, NCI panel, 48 h
SK-OV-3 = test system: SK-OV-3
SF-268 = test system: SF-268
SNB-78 = test system: SNB-78
SF-295 = test system: SF-295
OVCAR-4 = test system: OVCAR-4
A498 = test system: A498
HT-29 = test system: HT-29
LOX IMVI = test system: LOX IMVI
NCI-H226 = test system: NCI-H226
HCC 2998 = test system: HCC 2998
TK-10 = test system: TK-10
DMS-114 = test system: DMS-114
KM12 = test system: KM12
U-251 = test system: U-251
CAKI-1 = test system: CAKI-1
CCRF-CEM = test system: CCRF-CEM
HL-60 = test system: HL-60
LXFL 529 = test system: LXFL 529
OVCAR-5 = test system: OVCAR-5
MOLT-4 = test system: MOLT-4
HOP-92 = test system: HOP-92
COLO 205 = test system: COLO 205
KM-20L2 = test system: KM-20L2
OVCAR-8 = test system: OVCAR-8
UACC-62 = test system: UACC-62
HCT-15 = test system: HCT-15
SK-MEL-28 = test system: SK-MEL-28
M19-MEL = test system: M19-MEL
EKVX = test system: EKVX
Malme-3M = test system: Malme-3M
OVCAR-3 = test system: OVCAR-3
HOP-18 = test system: HOP-18
SK-MEL-5 = test system: SK-MEL-5
RXF 393 = test system: RXF 393
K562 = test system: K562
RPMI-8226 = test system: RPMI-8226
NCI-H23 = test system: NCI-H23
UO-31 = test system: UO-31
UACC-257 = test system: UACC-257
DLD-1 = test system: DLD-1
RXF 631 = test system: RXF 631
A549 = test system: A549
SW-620 = test system: SW-620
M14 = test system: M14
NCI-H460 = test system: NCI-H460
DMS-273 = test system: DMS-273
786-0 = test system: 786-0
HCT-116 = test system: HCT-116
ACHN = test system: ACHN
SNB-19 = test system: SNB-19
SK-MEL-2 = test system: SK-MEL-2
SN12C = test system: SN12C
HOP-62 = test system: HOP-62
IGROV-1 = test system: IGROV-1
SNB-75 = test system: SNB-75
NCI-H522 = test system: NCI-H522
SR = test system: SR
SF-539 = test system: SF-539

Structure (SMILES): CCN(CC)c1c(C(=O)/C=C/c2ccc(Cl)cc2)c(-c2ccccc2)nn(C)c1=O
- GI50 (SK-OV-3): 3.94 µM (inactive)
- GI50 (SF-268): 1.7 µM (inactive)
- GI50 (SNB-78): 2.61 µM (inactive)
- GI50 (SF-295): 1.85 µM (inactive)
- GI50 (OVCAR-4): 1.66 µM (inactive)
- GI50 (A498): 2.03 µM (inactive)
- GI50 (HT-29): 1.77 µM (inactive)
- GI50 (LOX IMVI): 1.9 µM (inactive)
- GI50 (NCI-H226): 2.05 µM (inactive)
- GI50 (HCC 2998): 1.85 µM (inactive)
- GI50 (TK-10): 2.14 µM (inactive)
- GI50 (DMS-114): 1.97 µM (inactive)
- GI50 (KM12): 1.92 µM (inactive)
- GI50 (U-251): 1.76 µM (inactive)
- GI50 (CAKI-1): 3.56 µM (inactive)
- GI50 (CCRF-CEM): 1.97 µM (inactive)
- GI50 (HL-60): 1.19 µM (inactive)
- GI50 (LXFL 529): 1.85 µM (inactive)
- GI50 (OVCAR-5): 1.74 µM (inactive)
- GI50 (MOLT-4): 2.12 µM (inactive)
- GI50 (HOP-92): 1.63 µM (inactive)
- GI50 (COLO 205): 2.03 µM (inactive)
- GI50 (KM-20L2): 2.47 µM (inactive)
- GI50 (OVCAR-8): 1.64 µM (inactive)
- GI50 (UACC-62): 1.71 µM (inactive)
- GI50 (HCT-15): 1.69 µM
- GI50 (SK-MEL-28): 1.62 µM (inactive)
- GI50 (M19-MEL): 1.69 µM (inactive)
- GI50 (EKVX): 2.07 µM (inactive)
- GI50 (Malme-3M): 2.22 µM (inactive)
- GI50 (OVCAR-3): 2.16 µM (inactive)
- GI50 (HOP-18): 2.09 µM (inactive)
- GI50 (SK-MEL-5): 1.72 µM (inactive)
- GI50 (RXF 393): 1.47 µM (inactive)
- GI50 (K562): 2.54 µM (inactive)
- GI50 (RPMI-8226): 2.25 µM (inactive)
- GI50 (NCI-H23): 1.68 µM (inactive)
- GI50 (UO-31): 1.73 µM (inactive)
- GI50 (UACC-257): 1.93 µM (inactive)
- GI50 (DLD-1): 1.73 µM (inactive)
- GI50 (RXF 631): 2.14 µM (inactive)
- GI50 (A549): 1.92 µM (inactive)
- GI50 (SW-620): 2.16 µM (inactive)
- GI50 (M14): 2.08 µM (inactive)
- GI50 (NCI-H460): 1.93 µM (inactive)
- GI50 (DMS-273): 1.71 µM (inactive)
- GI50 (786-0): 1.85 µM (inactive)
- GI50 (HCT-116): 1.67 µM (inactive)
- GI50 (ACHN): 1.87 µM (inactive)
- GI50 (SNB-19): 1.93 µM (inactive)
- GI50 (SK-MEL-2): 1.93 µM (inactive)
- GI50 (SN12C): 2.1 µM (inactive)
- GI50 (HOP-62): 2.12 µM (inactive)
- GI50 (IGROV-1): 2.03 µM (inactive)
- GI50 (SNB-75): 2.97 µM (inactive)
- GI50 (NCI-H522): 1.59 µM (inactive)

Structure (SMILES): COC(=O)c1c2c(c(-c3ccccc3)c3c1-c1nc(Cl)ccc1CC3)CCc1ccc(Cl)nc1-2
- GI50 (SK-OV-3): > 100 µM (inactive)
- GI50 (SF-268): 78.5 µM (inactive)
- GI50 (SNB-78): 37.9 µM (inactive)
- GI50 (SF-295): 44.6 µM (inactive)
- GI50 (OVCAR-4): > 100 µM (inactive)
- GI50 (A498): > 100 µM (inactive)
- GI50 (HT-29): > 100 µM (inactive)
- GI50 (LOX IMVI): > 100 µM (inactive)
- GI50 (NCI-H226): 52.6 µM (inactive)
- GI50 (HCC 2998): > 100 µM (inactive)
- GI50 (TK-10): > 100 µM (inactive)
- GI50 (KM12): > 100 µM (inactive)
- GI50 (U-251): 59.6 µM (inactive)
- GI50 (CAKI-1): > 100 µM (inactive)
- GI50 (CCRF-CEM): > 100 µM (inactive)
- GI50 (HL-60): > 100 µM (inactive)
- GI50 (SR): > 100 µM (inactive)
- GI50 (LXFL 529): > 100 µM (inactive)
- GI50 (OVCAR-5): > 100 µM (inactive)
- GI50 (MOLT-4): > 100 µM (inactive)
- GI50 (HOP-92): 42.2 µM (inactive)
- GI50 (COLO 205): > 100 µM (inactive)
- GI50 (KM-20L2): > 100 µM (inactive)
- GI50 (OVCAR-8): 65.2 µM (inactive)
- GI50 (UACC-62): 71.6 µM (inactive)
- GI50 (HCT-15): > 100 µM
- GI50 (SK-MEL-28): > 100 µM (inactive)
- GI50 (M19-MEL): > 100 µM (inactive)
- GI50 (EKVX): 61.4 µM (inactive)
- GI50 (Malme-3M): > 100 µM (inactive)
- GI50 (OVCAR-3): > 100 µM (inactive)
- GI50 (HOP-18): > 100 µM (inactive)
- GI50 (SK-MEL-5): > 100 µM (inactive)
- GI50 (RXF 393): 47.5 µM (inactive)
- GI50 (K562): > 100 µM (inactive)
- GI50 (RPMI-8226): > 100 µM (inactive)
- GI50 (NCI-H23): > 100 µM (inactive)
- GI50 (UO-31): > 100 µM (inactive)
- GI50 (UACC-257): > 100 µM (inactive)
- GI50 (DLD-1): > 100 µM (inactive)
- GI50 (RXF 631): > 100 µM (inactive)
- GI50 (A549): > 100 µM (inactive)
- GI50 (SW-620): > 100 µM (inactive)
- GI50 (M14): > 100 µM (inactive)
- GI50 (NCI-H460): 70.6 µM (inactive)
- GI50 (786-0): > 100 µM (inactive)
- GI50 (SF-539): 45.5 µM (inactive)
- GI50 (HCT-116): 77.6 µM (inactive)
- GI50 (ACHN): > 100 µM (inactive)
- GI50 (SNB-19): 64 µM (inactive)
- GI50 (SN12C): > 100 µM (inactive)
- GI50 (HOP-62): > 100 µM (inactive)
- GI50 (IGROV-1): > 100 µM (inactive)
- GI50 (SNB-75): 32.3 µM (inactive)
- GI50 (NCI-H522): 77.1 µM (inactive)

Structure (SMILES): C1CCCCc2nc3c(nc2CCC1)c1nc2c(nc1c1nc4c(nc31)CCCCCCCC4)CCCCCCCC2
- GI50 (SK-OV-3): > 100 µM (inactive)
- GI50 (SF-268): > 100 µM (inactive)
- GI50 (SNB-78): > 100 µM (inactive)
- GI50 (SF-295): > 100 µM (inactive)
- GI50 (A498): > 100 µM (inactive)
- GI50 (HT-29): > 100 µM (inactive)
- GI50 (LOX IMVI): > 100 µM (inactive)
- GI50 (HCC 2998): > 100 µM (inactive)
- GI50 (TK-10): > 100 µM (inactive)
- GI50 (KM12): > 100 µM (inactive)
- GI50 (U-251): > 100 µM (inactive)
- GI50 (CAKI-1): > 10 µM (inactive)
- GI50 (CCRF-CEM): > 100 µM (inactive)
- GI50 (HL-60): > 100 µM (inactive)
- GI50 (SR): > 100 µM (inactive)
- GI50 (LXFL 529): > 100 µM (inactive)
- GI50 (OVCAR-5): > 100 µM (inactive)
- GI50 (MOLT-4): > 100 µM (inactive)
- GI50 (HOP-92): > 100 µM (inactive)
- GI50 (COLO 205): > 100 µM (inactive)
- GI50 (KM-20L2): > 100 µM (inactive)
- GI50 (OVCAR-8): > 100 µM (inactive)
- GI50 (UACC-62): > 100 µM (inactive)
- GI50 (HCT-15): > 100 µM
- GI50 (SK-MEL-28): > 100 µM (inactive)
- GI50 (Malme-3M): > 100 µM (inactive)
- GI50 (HOP-18): > 100 µM (inactive)
- GI50 (K562): > 100 µM (inactive)
- GI50 (NCI-H23): > 100 µM (inactive)
- GI50 (UO-31): > 100 µM (inactive)
- GI50 (UACC-257): > 100 µM (inactive)
- GI50 (DLD-1): > 100 µM (inactive)
- GI50 (RXF 631): > 100 µM (inactive)
- GI50 (A549): > 100 µM (inactive)
- GI50 (SW-620): > 100 µM (inactive)
- GI50 (M14): > 100 µM (inactive)
- GI50 (NCI-H460): > 100 µM (inactive)
- GI50 (786-0): > 100 µM (inactive)
- GI50 (SF-539): > 100 µM (inactive)
- GI50 (HCT-116): > 100 µM (inactive)
- GI50 (ACHN): > 100 µM (inactive)
- GI50 (SNB-19): > 100 µM (inactive)
- GI50 (SK-MEL-2): > 100 µM (inactive)
- GI50 (SN12C): > 100 µM (inactive)
- GI50 (HOP-62): 82.6 µM (inactive)
- GI50 (IGROV-1): > 100 µM (inactive)
- GI50 (SNB-75): > 100 µM (inactive)
